Reference: paper PMC6150735, “Molecular Docking-Based Design and Development of a Highly Selective Probe Substrate for UDP-glucuronosyltransferase 1A10” (Molecular Pharmaceutics, 2018)

What was measured:
[1] = Excitation and emission fluorescence spectra of coumarin derivatives; assay type: physicochemical; set-up: dose or concentration left out as unconfirmed
Protocol: The absorbance spectra of 10 μM coumarin derivatives at 100 mM Tris–HCl pH 7.4 containing 10% dimethyl sulfoxide were measured using a Hitachi U-2000 Spectrophotometer (Tokyo, Japan). […] The excitation spectra was from 200 to 420 at 460 nm emission and the emission spectra was from 400 to 600 at 390 nm excitation (data in Supplementary Table S1 and Figures S1 and S2). The effect of pH on fluorescence intensity was determined at 405 nm excitation and 460 nm emission, in the presence of 1.5% trichloroacetic acid, 100 mM phosphate buffers at pH 5, 6, 7, 8, and 9, or 1.6 M glycine–NaOH pH 10.4.

[2] = molecular target: T1, UGT1A10 mutant 1A10-H210M (Homo sapiens, UniProt Q9HAW8, H210M); assay: Glucuronidation kinetics by UGT1A10 mutant 1A10-H210M (fluorescence decrease, 96-well plate); assay type: biochemical; conditions: mutant versus wild-type UGT1A10
T1 construct: His-tag; made in house; host or cells: baculovirus-infected SF9 insect cells
T1 sequence (Q9HAW8 26-530 H210M): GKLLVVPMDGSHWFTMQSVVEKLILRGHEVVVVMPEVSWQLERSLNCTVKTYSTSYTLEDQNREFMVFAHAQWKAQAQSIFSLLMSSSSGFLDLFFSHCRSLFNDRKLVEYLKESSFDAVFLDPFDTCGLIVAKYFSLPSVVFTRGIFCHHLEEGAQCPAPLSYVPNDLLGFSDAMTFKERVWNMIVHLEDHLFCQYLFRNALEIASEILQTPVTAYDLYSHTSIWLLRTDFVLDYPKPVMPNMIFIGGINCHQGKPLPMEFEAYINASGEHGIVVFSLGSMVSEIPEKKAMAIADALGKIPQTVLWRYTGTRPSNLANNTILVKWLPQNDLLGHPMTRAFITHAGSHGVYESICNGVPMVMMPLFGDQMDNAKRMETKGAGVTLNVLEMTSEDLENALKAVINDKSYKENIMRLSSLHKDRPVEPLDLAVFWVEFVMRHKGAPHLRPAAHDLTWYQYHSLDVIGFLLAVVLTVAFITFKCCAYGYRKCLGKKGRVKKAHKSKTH
Protocol: The UGT1A10 mutant 1A10-H210 M was prepared according to the QuikChange methodology, using the cloned UGT1A10 in pFastBac[42] as a template and the following two oligonucleotides:
The entire coding sequence of UGT1A10 in the mutant clone was sequenced, and subsequently, recombinant baculovirus was prepared and used to express the mutant enzyme in baculovirus-infected SF9 insect cells.
The incubation mixtures for glucuronidation assays contained 100 mM Tris-HCl buffer pH 7.4, 2.5 mM MgCl2, 0.5 mM UDPGA, recombinant UGT, or microsomes as the enzyme source and 0–15 μM of the test aglycone substrate. When the incubation mixtures contained microsomes, alamethicin was used at a final concentration of 12.5 μg/mL, but it was not included in the recombinant enzyme assays.[43] In the first experiments three negative control samples were tested, namely (i) without the substrate 7-hydroxycoumarin derivative, (ii) without the cofactor UDPGA, or (iii) without the enzyme source. In subsequent experiments, the control samples lacked the enzyme source since it gave the highest fluorescence background. […] Fluorescence spectra (excitation 200–420 nm; emission 400–600 nm) or fluorescence decrease at 390 nm excitation and 460 nm emission, were measured in these preliminary experiments, using a Shimadzu RF-5000 spectrophotofluorometer.
Most of the glucuronidation assays were carried out in 96 multiwell plate format, and incubations were carried out in 100 μL and at 37 °C, in the presence of Tris–HCl buffer pH 7.4, UDPGA, and the tested 7-hydroxycoumarin derivative, at the indicated concentrations. Fluorescence decline in the multiwell plate experiments was monitored every other minute, for 40 min, using an excitation filter at 405 nm and detection at 460 nm, in a Victor2 1420 Multilabel counter (PerkinElmer, Life Sciences, Turku, Finland). The fluorescence values were transformed into molarity using the aglycone substrates for making the respective standard curves. […] Enzyme catalyzed glucuronidation rate was calculated by subtracting the blank value from the full reaction value. […]

Fluorescence EMmax [1]: 494 nm | Fluorescence EXmax [1]: 396 nm | Change of Km by the H210M mutation (in words) [2]: considerably increased
Compound: O=c1oc2cc(O)ccc2cc1-n1cncn1 [Compound 6, 7-Hydroxy-3-(1H-1,2,4-triazol-1-yl)-2H-chromen-2-one]
